For assay [1], the system named is marine α-proteobacterium R. salexigens. The conditions noted are these: documented in literature (Yamada et al. 1997); cited from earlier work.
The subject of assay [2] is Xanthomonas strain Xcv 135. The assay can be described thus: Biofilm inhibition, crystal violet biofilm attachment assay on PVC microtiter wells. The assay is classed as cell-based. As to conditions: biofilm formation, starting OD600 0.55, 28° C., 6 hours, static. The method, then:
Activity Testing. A standard crystal violet reporter assay is employed to assess the effect of compounds on the formation of biofilms. Among others, the following strains are tested:
Bacteria are allowed to form biofilms in a multi-well plate in the absence or presence of one or more compounds. Planktonic (or free growing) bacteria are then removed, wells washed vigorously, and crystal violet added. Crystal violet stains the remaining bacteria which, following ethanol solubilization, is quantitated by spectrophotometry (A540). Time-dependent and concentration-dependent analysis of each compound are performed.
Activity testing of imidazole library members on Xanthomonas. Biofilm formation on PVC microtiter wells was accomplished using Xanthomonas strains Xcv 135 (known to infect peppers and tomatoes) and Xcv 5 (known to infect tomatoes but not peppers) as models. The Starting Optical Density (OD at 600 nm) for biofilm attachment assay was 0.55, the temperature for this assay was 28° C., the duration of incubation was 6 hours under, and the assay was static.
Biofilm inhibition results are as follows for screens with Xcv 135. The Xcv 5 strain is tested in the same manner.

The test system of a further assay is calcium channels. The conditions noted are these: known from literature (Bickmeyer, Toxicon 2005); cited from earlier work.

Where a name gives a salt, the structure may show the parent alone.

With `Nc1ncc(/C=C/CNC(=O)c2cc(Br)c(Br)[nH]2)[nH]1` [oroidin, oroidin hydrochloride], the “anti-biofouling properties: biofilm development in R. salexigens” value in assay [1] is “inhibiting biofilm development”. For the compound `Nc1nc2c([nH]1)C[C@@H](CNC(=O)c1cc(Br)c(Br)[nH]1)[C@H](CNC(=O)c1cc(Br)c(Br)[nH]1)C2` (racemic) [Formula (II)(b)(vi)(trans)(±)], in assay [2], the “% Inhibition at 20 μM (vs. Xcv 135)” value is given as 71%. As for `Nc1nc([C@@H]2c3[nH]c(N)nc3C[C@H](CNC(=O)c3cc(Br)c[nH]3)[C@H]2CNC(=O)c2cc(Br)c(Br)[nH]2)c[nH]1` [bromoageliferin], in assay [1], the “anti-biofouling properties: biofilm development in R. salexigens” value is reported as “inhibiting biofilm development”. In the assay on calcium channels, the “activity of calcium channels” value is reported as “modulate the activity of calcium channels”. As for `NC[C@@H]1Cc2nc(N)[nH]c2C[C@H]1CN` (racemic) [Formula (II)(a)(±)], the “% Inhibition at 20 μM (vs. Xcv 135)” value in assay [2] is on record as 0%.

Turning to `Nc1nc2c([nH]1)C[C@@H](CNC(=O)c1cc(Br)c[nH]1)[C@H](CNC(=O)c1cc(Br)c[nH]1)C2` (racemic) [Formula (II)(b)(v)(trans)(±)], in assay [2], the “% Inhibition at 20 μM (vs. Xcv 135)” value is listed as 0%.
